Test results published in patent US5739114A, “Immunosuppressive cyclolignan derivatives” (Universidad de Salamanca, priority 1994, dated 1998).
In brackets after ≈: the same amount, converted by molar mass. Read-outs that look alike come from different tables or passages of the source.

How the values were obtained:
[1] = test system: Graft-vs.-Host Reaction (spleen weight); assay: in vivo Graft-vs.-Host Reaction (GVHR) test
Source text: ^b % reduction of spleen weight with respect to non treated animals.

[2] = Cytotoxicity for monkey kidney fibroblasts; type: cell-based
Source text: ^d IC50 (μg/ml) for monkey kidney fibroblasts.

graft (implant duration) = assay: in vivo Suppression Graft (SG) test
Source text: ^c % of implant duration with respect to non treated animals.
^e 20% of the animals died in this experiment before the end of the
program (30 days of observation).

COc1cc([C@@H]2c3cc(O)c(O)cc3C[C@H]3COC(=O)[C@H]32)cc(OC)c1OC [AP-37, 3,4-O-demethylenedeoxypicropodophyllin]
GVHR index: % reduction of spleen weight with respect to non treated animals ([1]; dose 0.1 mg/kg/day (7 days)): 58%
CC50 ([2]; read-out: Cytotox. IC50): > 20 µg/mL

COc1cc([C@@H]2c3cc(O)c(O)cc3[C@@H](O)[C@H]3COC(=O)[C@H]23)cc(OC)c1OC [AP-39, 3,4-O-demethyleneepipodophyllotoxin]
SG index: % of implant duration with respect to non treated animals (graft (implant duration); dose 1.5 mg/kg/day (7 days)): 200%
CC50 ([2]; read-out: Cytotox. IC50): > 10 µg/mL

COc1cc([C@@H]2c3cc(O)c(O)cc3[C@H](O)[C@H]3COC(=O)[C@H]23)cc(OC)c1OC [AP-40, 3,4-O-demethylenepodophyllotoxin]
SG index: % of implant duration with respect to non treated animals (graft (implant duration); dose 1.5 mg/kg/day (7 days)): 229%
CC50 ([2]; read-out: Cytotox. IC50): 0.5 µg/mL (≈ 1.24 µM)

COC(=O)C1Oc2cc3c(cc2O1)[C@@H](c1cc(OC)c(OC)c(OC)c1)[C@@H]1C(=O)OC[C@@H]1C3 (stereo partly shown) [AP-47, 10-methoxycarbonyldeoxypicropodophyllin]
GVHR index: % reduction of spleen weight with respect to non treated animals ([1]; dose 10 mg/kg/day (7 days)): 56%
CC50 ([2]; read-out: Cytotox. IC50): 2.5 µg/mL (≈ 5.48 µM)

O=P1(N(CCCl)CCCl)NCCCO1 (stereo not shown) [Cyclophosphamide, reference compound]
GVHR index: % reduction of spleen weight with respect to non treated animals ([1]; dose 200 mg/kg/day (7 days)): 79%

COC(=O)C1C2CN(c3ccccc3)N=C2c2cc3c(cc2C1c1cc(OC)c(OC)c(OC)c1)OCO3 (stereo not shown) [LL-4, methyl phenylpyrazopodophyllate]
GVHR index: % reduction of spleen weight with respect to non treated animals ([1]; dose 1 mg/kg/day (7 days)): 53%
CC50 ([2]; read-out: Cytotox. IC50): 1 µg/mL (≈ 1.94 µM)

COc1cc(C2c3cc4c(cc3C3=NOCC3C2C(=O)O)OCO4)cc(OC)c1OC (stereo not shown) [LL-11, isoxazopodophyllic acid]
SG index: % of implant duration with respect to non treated animals (graft (implant duration); dose 0.15 mg/kg/day (7 days)): 204%
CC50 [2]: > 10 µg/mL
